# Target: T1, Human full-length Hsp90 (Homo sapiens, UniProt P08238)
# T1 construct: E. coli expressed human full-length HSP90 protein, purified >95%; made in house; host or cells: E. coli
# Assay: Fluorescence polarization assay (competitive binding to HSP90, probe RBT0045864-FAM)
# Conditions: not given
# Method in brief: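 Competitive fluorescence polarization: test compound displaces FAM-labelled probe RBT0045864-FAM (200 nM working solution) from HSP90 after equilibration, and anisotropy change is measured. Compounds serially diluted; BSA-containing buffer; standard compound as positive control; Z′ from zero and positive controls.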
# T1 sequence (P08238 whole entry): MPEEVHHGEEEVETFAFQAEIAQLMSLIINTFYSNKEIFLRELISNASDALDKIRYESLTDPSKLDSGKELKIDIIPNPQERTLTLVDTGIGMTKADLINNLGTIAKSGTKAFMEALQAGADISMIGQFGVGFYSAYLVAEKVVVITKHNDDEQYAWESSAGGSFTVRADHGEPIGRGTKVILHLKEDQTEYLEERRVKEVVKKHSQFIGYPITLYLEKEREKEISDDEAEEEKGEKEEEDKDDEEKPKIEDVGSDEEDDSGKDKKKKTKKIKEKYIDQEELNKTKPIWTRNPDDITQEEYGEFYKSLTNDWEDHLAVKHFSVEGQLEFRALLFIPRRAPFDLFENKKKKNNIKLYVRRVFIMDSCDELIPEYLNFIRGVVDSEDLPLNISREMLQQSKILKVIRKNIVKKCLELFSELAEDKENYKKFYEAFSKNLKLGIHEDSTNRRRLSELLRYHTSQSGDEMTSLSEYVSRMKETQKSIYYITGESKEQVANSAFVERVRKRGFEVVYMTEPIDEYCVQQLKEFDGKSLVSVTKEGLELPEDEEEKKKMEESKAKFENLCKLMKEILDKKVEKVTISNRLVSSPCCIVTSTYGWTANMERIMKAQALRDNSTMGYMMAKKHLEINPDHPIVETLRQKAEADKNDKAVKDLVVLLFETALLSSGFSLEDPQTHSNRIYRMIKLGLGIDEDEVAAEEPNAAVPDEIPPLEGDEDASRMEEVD
row,Compound,IC50
1,CCNC(=O)c1cc2c(-c3cc(OCCN(C)C)c(Cl)cc3Cl)nc(N)nc2s1 [Example 254],< 10 µM

# Same assay, conditions: fluorescence polarization assay, activity range; read-out: Hsp90 FP IC50
row,IC50,Compound
1,< 10 µM,NC(=O)[C@H](Cc1cnc[nH]1)NC(=O)c1cc2c(-c3ccc(Cl)cc3Cl)nc(N)nc2s1 [Example 164]
2,< 10 µM,CC(C)NC(=O)c1cc2c(-c3cc(OCCN4CCCC4)c(Cl)cc3Cl)nc(N)nc2s1 [Example 257]
3,> 10 µM,CCOC(=O)c1cc2c(Nc3ccccc3)nc(N)nc2s1 [Example 28]
4,> 10 µM,CCCNC(=O)c1ccc(C)c(-c2nc(N)nc3sc(C(=O)NCc4ccccc4)cc23)c1 [Example 182]
5,< 10 µM,CCNC(=O)c1cc2c(-c3cc(CNCC4CCCO4)ccc3C)nc(N)nc2s1 (centres unmarked) [Example 212]
6,< 10 µM,CCOC(=O)c1cc2c(C(=O)c3ccc(Cl)c(F)c3)nc(N)nc2s1 [Example 313]
7,< 10 µM,CCNC(=O)c1cc2c(-c3cc(CNCc4cccs4)c(C)cc3C)nc(N)nc2s1 [Example 233]
8,< 10 µM,CCOC(=O)c1cc2c(-c3cc(C(=O)OC)ccc3C)nc(N)nc2s1 [Example 179]
9,< 10 µM,C=Cc1ccc(-c2nc(N)nc3sc(C(=O)NCC)cc23)c(C)c1 [Example 171]
10,< 10 µM,CCOC(=O)c1cc2c(C(=O)c3ccc(F)cc3)nc(N)nc2s1 [Example 305]
11,< 10 µM,CCNC(=O)c1cc2c(-c3cc(C)c(Br)cc3C)nc(N)nc2s1 [Example 149]
12,< 10 µM,Nc1nc(-c2ccc(Cl)cc2Cl)c2cc(C(=O)Nc3nccs3)sc2n1 [Example 142]
13,< 10 µM,CCNC(=O)c1cc2c(-c3cc(OCc4ccccc4)c(Cl)cc3Cl)nc(N)nc2s1 [Example 241]
14,< 10 µM,CCNC(=O)c1cc2c(-c3cc(CNCCCOC)ccc3C)nc(N)nc2s1 [Example 202]
15,< 10 µM,CCNC(=O)c1cc2c(-c3cc(CNCCO)ccc3C)nc(N)nc2s1 [Example 205]
16,< 10 µM,CCNC(=O)c1cc2c(-c3cccc(O)c3)nc(N)nc2s1 [Example 244]
17,< 10 µM,CCOC(=O)c1cc2c(/C=C/c3ccc(C(F)(F)F)cc3)nc(N)nc2s1 [Example 288]
18,< 10 µM,CCNC(=O)c1cc2c(-c3cc(CNCc4ccccc4)ccc3C)nc(N)nc2s1 [Example 200]
19,< 10 µM,Nc1nc(-c2ccc(Cl)cc2Cl)c2cc(C(=O)Nc3ccc(Cl)cc3)sc2n1 [Example 111]
20,< 10 µM,CCNC(=O)c1cc2c(/C=C/c3ccccc3)nc(N)nc2s1 [Example 286]
21,< 10 µM,Nc1nc(-c2ccc(Cl)cc2Cl)c2cc(C(=O)NCCc3ccccn3)sc2n1 [Example 156]

row,IC50,Compound
1,> 10 µM,CCOC(=O)c1cc2c(-c3ccc(OCC(=O)O)cc3C)nc(N)nc2s1 [Example 193]
2,< 10 µM,Nc1nc(-c2ccc(Cl)cc2Cl)c2cc(C(=O)NCc3ccco3)sc2n1 [Example 125]
3,< 10 µM,CCOC(=O)c1cc2c(C(=O)c3cccc(F)c3)nc(N)nc2s1 [Example 303]
4,< 10 µM,CCOC(=O)c1cc2c(C(=O)c3cccc(C)c3C)nc(N)nc2s1 [Example 307]
5,> 10 µM,CCOC(=O)c1cc2c(-c3cccc(C#N)c3)nc(N)nc2s1 [Example 17]
6,< 10 µM,CCOC(=O)c1cc2c(-c3ccc(OCC)cc3)nc(N)nc2s1 [Example 8]
7,> 10 µM,"CCOC(=O)c1sc2nc(N)nc(-c3ccccc3)c2c1N [Example 74, 2,5-Diamino-4-phenyl-thieno[2,3-d]pyrimidine-6-carboxylic acid ethyl ester]"
8,< 10 µM,NC(=O)CNC(=O)c1cc2c(-c3ccccc3)nc(N)nc2s1 [Example 71]
9,> 10 µM,CCOC(=O)c1cc2c(-c3ccc(OC)cc3)nc(N)nc2s1 [Example 12]
10,< 10 µM,CCCNCc1cc(-c2nc(N)nc3sc(C(=O)NCC)cc23)c(C)cc1C [Example 231]
11,> 10 µM,CNC(=O)c1cc2c(Nc3ccccc3)nc(N)nc2s1 [Example 64]
12,< 10 µM,CCOC(=O)c1cc2c(-c3c(C)cccc3C)nc(N)nc2s1 [Example 6]
13,> 10 µM,Nc1nc(-c2ccccc2)c2cc(C(=O)N3CCOCC3)sc2n1 [Example 70]
14,< 10 µM,CCNC(=O)c1cc2c(-c3cc(C)c(C)cc3C)nc(N)nc2s1 [Example 150]
15,< 10 µM,CCCNC(=O)c1ccc(C)c(-c2nc(N)nc3sc(C(=O)OCC)cc23)c1 [Example 181]
16,< 10 µM,Nc1nc(-c2ccccc2)c2cc(C(=O)NCCCO)sc2n1 [Example 53]
17,< 10 µM,CC(C)NC(=O)c1cc2c(-c3ccc(Cl)cc3Cl)nc(N)nc2s1 [Example 133]
18,< 10 µM,CN(C)CCNC(=O)c1cc2c(-c3ccccc3)nc(N)nc2s1 [Example 44]
19,> 10 µM,CCCN(C)C(=O)c1cc2c(-c3ccc(C)cc3C)nc(N)nc2s1 [Example 93]
20,< 10 µM,Nc1nc(-c2ccc(Cl)cc2Cl)c2cc(C(=O)Nc3ccccc3)sc2n1 [Example 107]
21,< 10 µM,C=Cc1ccc(-c2nc(N)nc3sc(C(=O)OCC)cc23)c(C)c1 [Example 168]

row,IC50,Compound
1,> 10 µM,CCOC(=O)c1cc2c(-c3ccc(OCCN(CC)CC)cc3C)nc(N)nc2s1 [Example 190]
2,< 10 µM,CCOC(=O)c1cc2c(-c3ccc(C)cc3C)nc(N)nc2s1 [Example 34]
3,< 10 µM,CCNC(=O)c1cc2c(-c3ccc(C)cc3Cl)nc(N)nc2s1 [Example 152]
4,< 10 µM,CCOC(=O)c1cc2c(C(=O)c3ccc4c(c3)OCO4)nc(N)nc2s1 [Example 298]
5,< 10 µM,CCOC(=O)c1cc2c(-c3ccccc3C)nc(N)nc2s1 [Example 15]
6,< 10 µM,CCOC(=O)c1cc2c(-c3ccc(OCC(N)=O)cc3C)nc(N)nc2s1 [Example 191]
7,< 10 µM,Nc1nc(-c2ccc(Cl)cc2Cl)c2cc(C(=O)NCc3ccncc3)sc2n1 [Example 141]
8,> 10 µM,CCOC(=O)c1cc2c(NCCCN3CCCC3=O)nc(N)nc2s1 [Example 31]
9,< 10 µM,Nc1nc(-c2ccc(Cl)cc2Cl)c2cc(C(=O)N3CCC(N)C3)sc2n1 (centres unmarked) [Example 159]
10,< 10 µM,CCOC(=O)c1cc2c(-c3c(C)cc(C)cc3C)nc(N)nc2s1 [Example 77]
11,< 10 µM,CCNC(=O)c1cc2c(-c3cccc(OCCN(CC)CC)c3)nc(N)nc2s1 [Example 260]
12,> 10 µM,CCOC(=O)c1cc2c(-c3ccsc3)nc(N)nc2s1 [Example 18]
13,< 10 µM,CCN(CC)CCOc1cc(-c2nc(N)nc3sc(C(=O)NCCO)cc23)c(Cl)cc1Cl [Example 258]
14,< 10 µM,CCNC(=O)c1cc2c(-c3cc(OCc4cc(=O)[nH]c(=O)[nH]4)c(Cl)cc3Cl)nc(N)nc2s1 [Example 268]
15,< 10 µM,CCNC(=O)c1cc2c(-c3cc(CNCc4cccs4)ccc3C)nc(N)nc2s1 [Example 201]
16,< 10 µM,CCOC(=O)c1cc2c(/C=C/c3ccccc3)nc(N)nc2s1 [Example 278]
17,< 10 µM,"CCOC(=O)c1cc2c(C(=O)c3ccc(Cl)cc3)nc(N)nc2s1 [Example 295, 2-Amino-4-(4-chloro-benzoyl)-thieno[2,3-d]pyrimidine-6-carboxylic acid ethyl ester]"
18,> 10 µM,CCOC(=O)c1cc2c(NC(C)(C)c3ccccc3)nc(N)nc2s1 [Example 29]
19,< 10 µM,"Cc1ccc(-c2nc(N)nc3sc(S(=O)(=O)NC4CC4)cc23)c(C)c1 [Example 274, 2-Amino-4-(2,4-dimethyl-phenyl)-thieno[2,3-d]pyrimidine-6-sulfonic acid cyclopropylamide]"
20,> 10 µM,Nc1nc(-c2ccccc2)c2cc(C(=O)NCCCc3ccccc3)sc2n1 [Example 50]
21,< 10 µM,NC(=O)[C@H](CO)NC(=O)c1cc2c(-c3ccc(Cl)cc3Cl)nc(N)nc2s1 [Example 162]

row,IC50,Compound
1,< 10 µM,CCOC(=O)c1cc2c(C(=O)c3ccccc3F)nc(N)nc2s1 [Example 301]
2,> 10 µM,CCOC(=O)c1cc2c(-c3ccc(CN4CCOCC4)cc3)nc(N)nc2s1 [Example 41]
3,< 10 µM,CC(C)(NC(=O)c1cc2c(-c3ccc(Cl)cc3Cl)nc(N)nc2s1)c1ccccc1 [Example 140]
4,< 10 µM,"CCNC(=O)c1cc2c(-c3cc(OCC4CCCCN4C)c(Cl)cc3Cl)nc(N)nc2s1 (centres unmarked) [Example 273, 2-Amino-4-[2,4-dichloro-5-(1-methyl-piperidin-2-ylmethoxy)-phenyl]-thieno[2,3d]pyrimidine-6-carboxylic acid ethylamide]"
5,< 10 µM,CCOC(=O)c1cc2c(C(=O)c3ccc(OC)cc3)nc(N)nc2s1 [Example 297]
6,< 10 µM,CCCNC(=O)c1cc2c(-c3ccccc3)nc(N)nc2s1 [Example 47]
7,< 10 µM,C=CCNCc1ccc(C)c(-c2nc(N)nc3sc(C(=O)NCC)cc23)c1 [Example 209]
8,< 10 µM,Nc1nc(-c2ccc(Cl)cc2Cl)c2cc(C(=O)NCc3cccnc3)sc2n1 [Example 123]
9,< 10 µM,CCNC(=O)c1cc2c(-c3cc(CNCc4ccccn4)ccc3C)nc(N)nc2s1 [Example 216]
10,< 10 µM,Nc1nc(-c2ccc(Cl)cc2Cl)c2cc(C(=O)NCc3ccc4c(c3)OCO4)sc2n1 [Example 119]
11,< 10 µM,Nc1nc(-c2ccc(Cl)cc2Cl)c2cc(C(=O)NC3CN4CCC3CC4)sc2n1 (centres unmarked) [Example 158]
12,< 10 µM,Nc1nc(-c2ccc(Cl)cc2Cl)c2cc(C(=O)NCc3ccc(F)cc3)sc2n1 [Example 120]
13,< 10 µM,CCOC(=O)c1cc2c(-c3cncc4ccccc34)nc(N)nc2s1 [Example 293]
14,< 10 µM,Nc1nc(-c2ccc(Cl)cc2Cl)c2cc(C(=O)Nc3ccc(S(N)(=O)=O)cc3)sc2n1 [Example 108]
15,> 10 µM,CCOC(=O)c1cc2c(-c3cccc(C(N)=O)c3)nc(N)nc2s1 [Example 40]
16,> 10 µM,CCN(CC)CCCNC(=O)c1cc2c(-c3ccccc3)nc(N)nc2s1 [Example 58]
17,< 10 µM,CN(C)CCCNC(=O)c1cc2c(-c3ccc(Cl)cc3Cl)nc(N)nc2s1 [Example 102]
18,< 10 µM,CCOC(=O)c1cc2c(-c3ccc(C(F)(F)F)cc3C(F)(F)F)nc(N)nc2s1 [Example 4]
19,> 10 µM,Nc1nc(-c2ccccc2)c2cc(C(=O)NCCc3cccs3)sc2n1 [Example 55]

# From patent US8642594B2, “Substituted thieno[2,3-d]pyrimidines as HSP90 inhibitors” (Vernalis (R&D) Limited, priority 2003, dated 2014)
